Test results as given in patent publication US8003799B2, “Picolinic acid derivatives and their use as fungicides” (Bayer SAS, priority 2000, dated 2011).

How the values were obtained:
Septoria tritici = test: In vivo test on Septoria tritici (septoria disease of wheat); conditions: dose of 500 g/ha; wheat plants (Scipion variety) sprayed 24 hours before contamination; grading 15 to 20 days after contamination vs control plants
Method: In Vivo Test on Septoria Tritici (Septoria Disease of Wheat) […] Wheat plants (Scipion variety) in starter cups, sown on a 50/50 peat soil-pozzolana substrate and grown at 12° C., are treated at the 1-leaf stage (10 cm tall) by spraying with the aqueous suspension described above. Plants, used as controls, are treated with an aqueous solution not containing the active material. After 24 hours, the plants are contaminated by spraying them with an aqueous suspension of Septoria tritici spores (500,000 spores per mL). The spores are collected from a 15-day-old culture and are suspended in a nutrient solution composed of: • 1.5 g/L of gelatin • 0.5 g/L of sodium oleate • 24 g/L of PDB The contaminated wheat plants are incubated for 72 hours at about 20° C. and at 100% relative humidity, and then for 15 days at 80% relative humidity. Grading is carried out 15 to 20 days after the contamination, in comparison with the control plants.

[1] = system: Erisyphe graminis f. sp. tritici; test: In vivo test on Erisyphe graminis f. sp. tritici (powdery mildew of wheat); conditions: dose of 500 g/ha; wheat plants (Audace variety) sprayed 24 hours before contamination; grading 7 to 14 days after contamination vs control plants
Method: In Vivo Test on […] Graminis f. Sp. Tritici (Powdery Mildew of Wheat) […] Wheat plants (Audace variety) in starter cups, sown on 50/50 peat soil-pozzulana substrate and grown at 12° C., are treated at the 1-leaf stage (10 cm tall) by spraying with the aqueous suspension described above. Plants, used as controls, are treated with an aqueous solution not containing the active material. After 24 hours, the plants are contaminated by dusting them with […] graminis f. sp. tritici spores, the dusting being carried out using diseased plants. Grading is carried out 7 to 14 days after the contamination, in comparison with the control plants.

Nc1ccnc(C(=O)Nc2ccc(Oc3ccc(C(F)(F)F)cc3)cc2)c1O [Compound 108, 4-amino-3-hydroxy-N-para-[4-(trifluoromethyl)phenoxy]phenylpicolinamide]
good (at least 50%) protection (Septoria tritici): at least 50% | good (at least 50%) or total protection [1]: at least 50%
